Test results reported in ChEMBL document CHEMBL4342404, “Anti-cholinesterase hybrids as multi-target-directed ligands against Alzheimer's disease (1998-2018)” (Bioorg Med Chem, 2019).

Legend:
[1] = biological target: T1, Acetylcholinesterase (Electrophorus electricus, UniProt O42275); assay: Inhibition of electric eel AChE using acetylthiocholine iodide as substrate pretreated for 5 mins followed by substrate addition and measured after 2 mins by Ellman's method
[2] = biological target: T2, Acetylcholinesterase (Rattus norvegicus, UniProt P37136); assay: Inhibition of rat cortex acetylcholinesterase using acetylthiocholine iodide as substrate incubated for 20 mins by Ellman's method
T2 sequence (P37136 whole entry): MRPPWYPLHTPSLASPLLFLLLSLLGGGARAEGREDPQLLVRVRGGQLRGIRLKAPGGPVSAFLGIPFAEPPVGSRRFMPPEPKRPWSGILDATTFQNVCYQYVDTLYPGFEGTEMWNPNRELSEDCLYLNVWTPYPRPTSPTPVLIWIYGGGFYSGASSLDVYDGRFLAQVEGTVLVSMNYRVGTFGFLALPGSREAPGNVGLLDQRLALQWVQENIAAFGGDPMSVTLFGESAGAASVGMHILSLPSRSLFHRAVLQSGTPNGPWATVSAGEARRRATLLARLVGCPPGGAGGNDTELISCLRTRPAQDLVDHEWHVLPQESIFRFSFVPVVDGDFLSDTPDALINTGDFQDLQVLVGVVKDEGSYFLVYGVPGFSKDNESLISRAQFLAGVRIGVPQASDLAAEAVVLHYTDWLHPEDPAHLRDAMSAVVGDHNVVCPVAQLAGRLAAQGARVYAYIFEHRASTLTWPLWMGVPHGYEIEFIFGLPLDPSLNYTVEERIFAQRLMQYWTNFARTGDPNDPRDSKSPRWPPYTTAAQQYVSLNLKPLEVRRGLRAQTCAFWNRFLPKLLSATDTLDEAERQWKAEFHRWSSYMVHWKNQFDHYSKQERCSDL

[3] = biological target: 5-hydroxytryptamine receptor 1A (Homo sapiens, UniProt P08908); assay: Agonist activity at human 5H1A receptor expressed in HEK293 cells incubated for 60 mins by Eu-cAMP tracer based LANCE ultra cAMP assay; format: functional, cell-based
5-hydroxytryptamine receptor 1A, sequence (P08908 whole entry): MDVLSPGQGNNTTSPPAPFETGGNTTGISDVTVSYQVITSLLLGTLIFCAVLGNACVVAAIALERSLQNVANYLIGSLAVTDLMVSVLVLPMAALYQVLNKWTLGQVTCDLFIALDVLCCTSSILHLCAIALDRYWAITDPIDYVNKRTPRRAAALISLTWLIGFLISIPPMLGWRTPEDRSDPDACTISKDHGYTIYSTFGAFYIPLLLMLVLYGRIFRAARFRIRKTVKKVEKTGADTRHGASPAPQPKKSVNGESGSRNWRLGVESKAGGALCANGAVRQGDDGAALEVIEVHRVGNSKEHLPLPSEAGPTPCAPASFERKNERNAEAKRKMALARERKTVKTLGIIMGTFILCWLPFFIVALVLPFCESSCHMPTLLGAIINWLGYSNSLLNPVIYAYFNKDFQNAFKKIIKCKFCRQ

[4] = biological target: Sodium-dependent serotonin transporter (Homo sapiens, UniProt P31645); assay: Inhibition of SERT (unknown origin) expressed in HEK293 cells assessed as reduction in 5-HT reuptake incubated for 30 mins followed by centrifugation for 15 secs and measured after 30 mins; format: cell-based
Sodium-dependent serotonin transporter, sequence (P31645 whole entry): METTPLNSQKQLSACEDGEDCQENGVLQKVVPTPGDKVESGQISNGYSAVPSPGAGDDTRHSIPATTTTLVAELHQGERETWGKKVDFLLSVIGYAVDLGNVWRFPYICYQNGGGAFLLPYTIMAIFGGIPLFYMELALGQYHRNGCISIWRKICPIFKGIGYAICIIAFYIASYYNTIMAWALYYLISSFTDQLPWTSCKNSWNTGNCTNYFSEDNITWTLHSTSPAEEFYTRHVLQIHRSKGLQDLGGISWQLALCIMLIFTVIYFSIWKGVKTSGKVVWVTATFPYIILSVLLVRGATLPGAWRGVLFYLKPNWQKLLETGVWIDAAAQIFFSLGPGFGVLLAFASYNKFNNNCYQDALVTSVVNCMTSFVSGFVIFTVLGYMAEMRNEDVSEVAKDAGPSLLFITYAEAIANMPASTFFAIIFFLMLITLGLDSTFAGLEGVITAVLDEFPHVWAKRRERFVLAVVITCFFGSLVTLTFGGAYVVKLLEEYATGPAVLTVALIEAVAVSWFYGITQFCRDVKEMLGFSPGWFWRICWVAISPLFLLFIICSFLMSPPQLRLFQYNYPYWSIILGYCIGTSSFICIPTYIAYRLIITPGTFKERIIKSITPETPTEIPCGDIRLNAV

[5] = biological target: T3, Acetylcholinesterase (Homo sapiens, UniProt P22303); assay: Inhibition of human erythrocyte acetylcholinesterase using acetylthiocholine as substrate preincubated for 60 mins followed by substrate addition by Ellman's method
T3 sequence (P22303 whole entry): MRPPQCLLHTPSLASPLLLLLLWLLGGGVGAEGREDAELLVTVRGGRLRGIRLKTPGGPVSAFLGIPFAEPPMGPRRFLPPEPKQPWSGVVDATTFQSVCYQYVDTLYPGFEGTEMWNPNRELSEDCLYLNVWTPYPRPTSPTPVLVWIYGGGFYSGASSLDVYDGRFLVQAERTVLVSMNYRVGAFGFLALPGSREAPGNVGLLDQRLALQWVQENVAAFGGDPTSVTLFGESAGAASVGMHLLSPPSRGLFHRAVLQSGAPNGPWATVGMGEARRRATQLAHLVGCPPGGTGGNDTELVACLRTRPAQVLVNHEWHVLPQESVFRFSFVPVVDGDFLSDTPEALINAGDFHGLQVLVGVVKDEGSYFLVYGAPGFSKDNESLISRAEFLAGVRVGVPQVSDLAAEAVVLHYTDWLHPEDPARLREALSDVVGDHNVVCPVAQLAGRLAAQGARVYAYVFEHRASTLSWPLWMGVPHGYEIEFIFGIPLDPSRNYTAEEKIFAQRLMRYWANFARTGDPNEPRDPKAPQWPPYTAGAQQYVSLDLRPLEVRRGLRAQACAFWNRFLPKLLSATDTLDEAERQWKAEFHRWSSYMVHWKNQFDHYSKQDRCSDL

[6] = biological target: T4, Cholinesterase (Homo sapiens, UniProt P06276); assay: Inhibition of human butyrylcholinesterase
T4 sequence (P06276 whole entry): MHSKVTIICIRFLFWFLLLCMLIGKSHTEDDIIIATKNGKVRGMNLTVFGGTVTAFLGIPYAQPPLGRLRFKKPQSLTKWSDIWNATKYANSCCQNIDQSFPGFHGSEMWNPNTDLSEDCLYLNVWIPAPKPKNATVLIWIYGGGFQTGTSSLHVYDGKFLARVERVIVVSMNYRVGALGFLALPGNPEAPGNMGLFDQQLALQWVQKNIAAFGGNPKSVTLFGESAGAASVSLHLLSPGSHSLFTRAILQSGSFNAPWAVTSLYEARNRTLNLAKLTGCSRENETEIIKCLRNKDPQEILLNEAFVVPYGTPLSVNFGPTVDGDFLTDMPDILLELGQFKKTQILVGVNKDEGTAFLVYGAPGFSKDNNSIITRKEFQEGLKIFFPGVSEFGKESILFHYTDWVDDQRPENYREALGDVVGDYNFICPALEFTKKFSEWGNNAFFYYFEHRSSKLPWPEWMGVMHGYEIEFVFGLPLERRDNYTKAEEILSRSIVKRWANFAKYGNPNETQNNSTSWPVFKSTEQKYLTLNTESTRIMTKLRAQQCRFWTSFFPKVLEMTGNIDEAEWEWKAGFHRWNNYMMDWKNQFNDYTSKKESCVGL

[7] = biological target: T3, Acetylcholinesterase
[8] = biological target: T4, Cholinesterase; assay: Inhibition of human plasma butyrylcholinesterase by Ellman's method
[9] = biological target: T3, Acetylcholinesterase; assay: biochemical
Description: Inhibition of human acetylcholinesterase expressed in HEK 293 cells using acetylthiocholine iodide as substrate by Ellman's method

[10] = biological target: T1, Acetylcholinesterase; assay: Inhibition of electric eel AChE using acetylthiocholine iodide as substrate incubated for 15 mins by Ellman's method
[11] = biological target: Butyrylcholinesterase (Rattus norvegicus) (UniProt Q9JKC1); assay: Inhibition of rat serum butyrylcholinesterase using butyrylthiocholine iodide as substrate at 50 uM incubated for 15 mins by Ellman's method relative to control
Butyrylcholinesterase (Rattus norvegicus), sequence (Q9JKC1 as listed by the source): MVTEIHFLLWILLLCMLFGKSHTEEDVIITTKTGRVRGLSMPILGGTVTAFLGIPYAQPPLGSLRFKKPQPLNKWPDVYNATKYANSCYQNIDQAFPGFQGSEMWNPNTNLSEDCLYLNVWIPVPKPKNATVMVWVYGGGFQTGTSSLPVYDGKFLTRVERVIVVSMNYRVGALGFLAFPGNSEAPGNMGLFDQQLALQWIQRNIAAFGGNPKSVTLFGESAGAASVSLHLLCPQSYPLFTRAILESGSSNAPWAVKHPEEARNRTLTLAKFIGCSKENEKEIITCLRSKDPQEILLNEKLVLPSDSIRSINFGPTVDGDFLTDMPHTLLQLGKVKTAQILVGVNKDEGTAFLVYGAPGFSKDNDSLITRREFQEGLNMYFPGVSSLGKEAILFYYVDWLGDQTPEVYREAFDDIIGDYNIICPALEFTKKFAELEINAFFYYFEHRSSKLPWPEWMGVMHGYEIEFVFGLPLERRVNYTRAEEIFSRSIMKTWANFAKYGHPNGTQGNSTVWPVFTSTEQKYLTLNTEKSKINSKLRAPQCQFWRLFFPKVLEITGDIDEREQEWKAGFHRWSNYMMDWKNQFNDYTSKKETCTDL

[12] = biological target: T2, Acetylcholinesterase; assay: Antagonist activity at Acetylcholinesterase in Sprague-Dawley rat phrenic nerve-hemidiaphragm assessed as reversal of d-tubocurarine induced neuromuscular blockade after 15 mins; conditions: read-out: I50
[13] = biological target: T5, Acetylcholinesterase (Bos taurus, UniProt P23795)
T5 sequence (P23795 whole entry): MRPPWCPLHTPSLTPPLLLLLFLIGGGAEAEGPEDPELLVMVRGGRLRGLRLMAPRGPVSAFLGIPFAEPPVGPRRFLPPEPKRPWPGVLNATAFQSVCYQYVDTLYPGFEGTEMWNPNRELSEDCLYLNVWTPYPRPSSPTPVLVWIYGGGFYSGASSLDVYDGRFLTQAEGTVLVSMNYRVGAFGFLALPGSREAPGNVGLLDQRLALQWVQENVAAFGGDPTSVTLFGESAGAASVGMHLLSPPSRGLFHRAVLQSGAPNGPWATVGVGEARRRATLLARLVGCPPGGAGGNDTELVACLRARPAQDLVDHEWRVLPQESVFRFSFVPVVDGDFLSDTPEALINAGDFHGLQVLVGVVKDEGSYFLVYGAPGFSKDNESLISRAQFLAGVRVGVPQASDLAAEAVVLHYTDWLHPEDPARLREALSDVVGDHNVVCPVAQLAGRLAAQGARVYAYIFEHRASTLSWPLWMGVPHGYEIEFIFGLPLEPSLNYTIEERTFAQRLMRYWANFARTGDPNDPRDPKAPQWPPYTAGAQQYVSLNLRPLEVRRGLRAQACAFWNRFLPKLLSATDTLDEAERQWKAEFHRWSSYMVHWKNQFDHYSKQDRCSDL
Description: Inhibition of bovine erythrocyte acetylcholinesterase using acetylthiocholine as substrate by Ellman's method

[14] = biological target: Acetylcholinesterase (Rattus norvegicus) (UniProt P37136); assay: Inhibition of acetylcholinesterase in Wistar rat primary cortical neuron cells assessed as reduction in amyloidbeta40 level at […] incubated for 24 hrs by ELISA relative to control
[15] = biological target: T4, Cholinesterase; assay: Inhibition of human serum butyrylcholinesterase using butyrylthiocholine iodide as substrate preincubated for 20 mins followed by substrate addition preincubated for 20 mins followed by substrate addition by Ellman's method
[16] = Antioxidant activity assessed as AAPH radical scavenging activity measured every min for 60 mins by ORAC-FL assay relative to trolox; format: functional
[17] = Cytotoxicity against human HepG2 cells assessed as cell viability at 1000 uM by MTT assay relative to control; format: cell-based; conditions: read-out: Activity
[18] = biological target: T1, Acetylcholinesterase; assay: Inhibition of electric eel AChE using acetylthiocholine iodide as substrate pretreated followed by substrate addition and measured after 2 mins by Ellman's method
[19] = biological target: T3, Acetylcholinesterase; assay: Inhibition of human acetylcholinesterase using acetylthiocholine as substrate pretreated followed by substrate addition and measured after 15 mins by Ellman's method
[20] = biological target: Cholinesterase (Equus caballus, UniProt P81908); assay: Inhibition of equine serum BuChE using butyrylthiocholine iodide as substrate pretreated followed by substrate addition and measured after 2 mins by Ellman's method
Cholinesterase (Equus caballus, UniProt P81908), sequence (P81908 whole entry): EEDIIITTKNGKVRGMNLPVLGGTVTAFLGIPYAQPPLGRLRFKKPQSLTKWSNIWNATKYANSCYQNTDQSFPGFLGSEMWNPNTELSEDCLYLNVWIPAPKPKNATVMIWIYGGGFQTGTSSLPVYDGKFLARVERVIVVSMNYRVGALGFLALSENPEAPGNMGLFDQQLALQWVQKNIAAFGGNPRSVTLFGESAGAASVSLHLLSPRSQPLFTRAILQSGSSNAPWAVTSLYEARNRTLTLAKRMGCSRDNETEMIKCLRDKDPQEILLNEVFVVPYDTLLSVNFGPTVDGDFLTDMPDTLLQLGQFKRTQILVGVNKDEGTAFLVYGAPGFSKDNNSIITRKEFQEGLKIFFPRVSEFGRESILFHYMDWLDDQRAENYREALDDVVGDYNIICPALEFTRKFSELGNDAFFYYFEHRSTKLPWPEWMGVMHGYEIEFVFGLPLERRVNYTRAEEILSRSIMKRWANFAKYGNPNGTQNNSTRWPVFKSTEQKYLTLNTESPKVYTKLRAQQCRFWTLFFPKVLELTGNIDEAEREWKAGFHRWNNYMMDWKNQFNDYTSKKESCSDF

[21] = biological target: T4, Cholinesterase; assay: Inhibition of human butyrylcholinesterase using butyrylthiocholine iodide as substrate pretreated followed by substrate addition and measured after 15 mins by Ellman's method
[22] = species: Homo sapiens; assay: Selectivity index, ratio of IC50 for human AChE to IC50 for human BuChE

T1 sequence (O42275 whole entry): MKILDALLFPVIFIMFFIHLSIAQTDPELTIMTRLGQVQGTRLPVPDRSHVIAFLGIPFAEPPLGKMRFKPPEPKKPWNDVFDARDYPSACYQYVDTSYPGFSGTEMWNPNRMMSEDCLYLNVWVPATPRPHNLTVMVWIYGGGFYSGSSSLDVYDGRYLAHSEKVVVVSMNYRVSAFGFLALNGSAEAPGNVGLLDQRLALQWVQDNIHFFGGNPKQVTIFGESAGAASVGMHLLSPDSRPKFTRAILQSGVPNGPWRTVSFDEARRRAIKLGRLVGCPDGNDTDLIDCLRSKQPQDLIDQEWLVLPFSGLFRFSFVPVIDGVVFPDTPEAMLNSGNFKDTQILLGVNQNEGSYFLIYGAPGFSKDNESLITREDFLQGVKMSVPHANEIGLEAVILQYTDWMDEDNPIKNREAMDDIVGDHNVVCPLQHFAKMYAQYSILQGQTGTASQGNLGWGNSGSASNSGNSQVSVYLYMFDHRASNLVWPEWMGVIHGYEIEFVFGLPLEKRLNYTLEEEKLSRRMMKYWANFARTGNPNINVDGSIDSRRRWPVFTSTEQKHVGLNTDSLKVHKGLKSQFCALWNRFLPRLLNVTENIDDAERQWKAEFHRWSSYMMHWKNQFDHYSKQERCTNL

CN(C)C(=O)Oc1ccccc1-c1nc2ccccc2s1
IC50 [1]: 20900 nM

N#Cc1ccc2[nH]cc(CCCCN3CCN(c4c5c(nc6ccccc46)CCC5)CC3)c2c1
IC50 [2]: 3320 nM
EC50 [3]: 107 nM
IC50 [4]: 76.3 nM

C#CCN(C)C(C)Cc1cccc(OC(=O)N(C)CCCCCC)c1 (single isomer, unassigned; (+))
IC50 [5]: 2000 nM

COc1ccc2[nH]cc(CCNC(=O)CN(CCC3CCN(Cc4ccccc4)CC3)C(=O)/C=C/c3ccc(O)c(OC)c3)c2c1
IC50 [6]: 21.8 nM
IC50 [7]: 30.7 nM

COc1ccc2[nH]cc(CCNC(=O)CN(CCCC3CCN(Cc4ccccc4)CC3)C(=O)/C=C/c3ccc(O)c(OC)c3)c2c1
IC50 [6]: 17.5 nM
IC50 [7]: 26.2 nM

C#CCN(C)C(C)Cc1cccc(OC(=O)N(C)CCCCCC)c1 (single isomer, unassigned; (-))
IC50 [5]: 3400 nM

O=C(c1ccc(OCCCc2cnc[nH]2)cc1)C1CC1 [CIPROXIFAN]
IC50 [8]: 77300 nM
IC50 [9]: 86100 nM

CCN(CC)Cc1ccc(/C=C/c2cnc(C)c(O)c2CO)cc1O
IC50 [10]: 2110 nM
inhibition [11]: 16.7%

CC1=C[C@@H]2Cc3nc4cc(F)ccc4c(N)c3[C@H](C1)C2 (racemic)
IC50 [12]: 8 nM
IC50 [13]: 85 nM

CC(C(=O)NCCCCCCNc1c2c(nc3ccccc13)CCCC2)c1ccc(-c2ccccc2)c(F)c1 (stereo not given)
inhibition [14]: 31%

COc1ccc2nc3c(c(NCCCCCCCCN(CC(=O)Nc4ccc5ccccc5c4)C(=O)/C=C/c4ccc(O)c(OC)c4)c2c1)CCCC3
IC50 [15]: 68.2 nM
Ratio [16]: 4.29
viability at 1000 µM [17]: 59.4%

O=C(/C=C/c1ccc(OCc2ccccc2)cc1)NCCNc1c2c(nc3ccccc13)CCCC2
IC50 [18]: 29.5 nM
IC50 [19]: 60.6 nM
IC50 [20]: 42.6 nM
IC50 [21]: 86.1 nM
Selectivity Index [22]: 0.7
